Assay results published in ChEMBL document CHEMBL1821644, “A prodrug approach for improving antituberculosis activity of potent Mycobacterium tuberculosis type II dehydroquinase inhibitors” (J Med Chem, 2011).
pKi: −log10 of the molar value. Values after ≈ are worked out from the molar mass of the structure shown. Active and inactive are the calls of the source. The rule behind the calls is not given here.

Legend:
[1] = target: T1, 3-dehydroquinate dehydratase (Mycobacterium tuberculosis, UniProt P9WPX7); test: Competitive inhibition of Mycobacterium tuberculosis DHQ2
T1 sequence (P9WPX7 whole entry): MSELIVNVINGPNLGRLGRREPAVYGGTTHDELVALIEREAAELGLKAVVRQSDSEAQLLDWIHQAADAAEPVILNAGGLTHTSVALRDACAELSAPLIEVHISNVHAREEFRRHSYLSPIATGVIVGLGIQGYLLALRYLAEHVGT

[2] = target: T2, 3-dehydroquinate dehydratase (Helicobacter pylori (strain ATCC 700392 / 26695) (Campylobacterpylori), UniProt Q48255); test: Competitive inhibition of Helicobacter pylori DHQ2
T2 sequence (Q48255 whole entry): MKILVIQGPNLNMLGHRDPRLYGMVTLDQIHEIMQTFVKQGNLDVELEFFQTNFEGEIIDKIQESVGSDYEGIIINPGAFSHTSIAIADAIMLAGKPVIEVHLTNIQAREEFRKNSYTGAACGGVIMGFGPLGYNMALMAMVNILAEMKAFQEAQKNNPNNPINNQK

[3] = target: T3, 3-dehydroquinate dehydratase (Mycobacterium tuberculosis) (UniProt P9WPX7); test: Reversible inhibition of Mycobacterium tuberculosis DHQ2
T3 sequence (whole entry): T1 sequence (P9WPX7 whole entry)

[4] = target: T4, 3-dehydroquinate dehydratase (Helicobacter pylori (strain ATCC 700392 / 26695) (Campylobacterpylori)) (UniProt Q48255); test: Reversible inhibition of Helicobacter pylori DHQ2
T4 sequence (whole entry): T2 sequence (Q48255 whole entry)

[5] = system: Mycobacterium tuberculosis; test: Antimicrobial activity against Mycobacterium tuberculosis H37Rv by Microplate Alamar blue assay; type: functional
[6] = system: MRC5; test: Cytotoxicity against human MRC5 at 300 to 400 ug/ml using crystal violet staining; type: cell-based

SMILES	pKi [1]	pKi [2]	inhibition [3]	inhibition [4]	MIC [5] [µg/mL]	Activity [6]
O=C(O)[C@@]1(O)C[C@@H](O)[C@H](O)C(OCc2cccs2)=C1Cc1ccc2sccc2c1	7.23	7.00	Active	Active	–	–
O=C(O)[C@@]1(O)C[C@@H](O)[C@H](O)C(OCc2ccc3ccccc3c2)=C1Cc1ccc2ccccc2c1	5.22	6.59	Active	Active	–	–
O=C(O)[C@@]1(O)C[C@@H](O)[C@H](O)C(OCc2ccc3sccc3c2)=C1Cc1ccc2sccc2c1	–	6.85	Active	Active	–	–
O=C(O)[C@]1(O)C=C(/C=C/COc2ccc(F)cc2)[C@@H](O)[C@H](O)C1	6.92	–	–	–	–	–
O=C(O)[C@@]1(O)C[C@@H](O)[C@H](O)C(OCc2cc3ccccc3s2)=C1Cc1cc2ccccc2s1	7.40	7.01	Active	Active	–	–
C=CCC1=C(OCc2cc3ccccc3s2)[C@@H](O)[C@H](O)C[C@]1(O)C(=O)O	–	–	Active	Active	–	–
CCCC(=O)O[C@@H]1C(OCc2ccc3sccc3c2)=C[C@@](O)(C(=O)OCC)C[C@H]1OC(=O)CCC	–	–	–	–	5 (≈ 9.91 µM)	Non-toxic
CCCOC(=O)[C@]1(O)C=C(OCc2ccc3sccc3c2)[C@@H](O)[C@H](O)C1	–	–	–	–	20 (≈ 52.8 µM)	Non-toxic
O=C(O)[C@@]1(O)C[C@@H](O)[C@H](O)C(OCc2cccs2)=C1Cc1cccs1	5.29	4.84	Active	Active	–	–
CCOC(=O)[C@]1(O)C=C(OCc2cc3ccccc3s2)[C@@H](O)[C@H](O)C1	–	–	–	–	40 (≈ 110 µM)	Non-toxic
CCCOC(=O)[C@]1(O)C=C(OCc2ccc3ccccc3c2)[C@@H](OC(=O)CCC)[C@H](OC(=O)CCC)C1	–	–	–	–	5 (≈ 9.75 µM)	Non-toxic
CCOC(=O)[C@@]1(O)C[C@@H](O)[C@H](O)C(OCc2ccc3sccc3c2)=C1Cc1ccc2sccc2c1	–	–	–	–	160 (≈ 313 µM)	Non-toxic
O=C(O)[C@]1(O)C=C(OCc2ccc3sccc3c2)[C@@H](O)[C@H](O)C1	–	–	Active	Active	–	–
CCOC(=O)[C@]1(O)C=C(OCc2ccc3ccccc3c2)[C@@H](O)[C@H](O)C1	–	–	–	–	20 (≈ 55.8 µM)	Non-toxic
COC(=O)[C@]1(O)C=C(OCc2cc3ccc(Cl)cc3s2)[C@@H](O)[C@H](O)C1	–	–	–	–	> 160	Non-toxic
CCCOC(=O)[C@]1(O)C=C(OCc2ccc3sccc3c2)[C@@H](OC(=O)CCC)[C@H](OC(=O)CCC)C1	–	–	–	–	20 (≈ 38.6 µM)	Non-toxic
COC(=O)[C@@]1(O)C[C@@H](O)[C@H](O)C(OCc2cc3ccc(Cl)cc3s2)=C1Cc1cc2ccc(Cl)cc2s1	–	–	–	–	80 (≈ 141 µM)	Non-toxic
Cc1ccc2sc(COC3=C(Cc4cc5cc(C)ccc5s4)[C@@](O)(C(=O)O)C[C@@H](O)[C@@H]3O)cc2c1	–	7.30	Active	Active	–	–
CCOC(=O)[C@@]1(O)C[C@@H](O)[C@H](O)C(OCc2cc3ccc(Cl)cc3s2)=C1Cc1cc2ccc(Cl)cc2s1	–	–	–	–	> 160	Non-toxic
COC(=O)[C@@]1(O)C[C@@H](O)[C@H](O)C(OCc2cc3cc(C)ccc3s2)=C1Cc1cc2cc(C)ccc2s1	–	–	–	–	> 160	Non-toxic

SMILES	pKi [1]	pKi [2]	inhibition [3]	inhibition [4]	MIC [5] [µg/mL]	Activity [6]
CCOC(=O)[C@]1(O)C=C(OCc2ccc3sccc3c2)[C@@H](O)[C@H](O)C1	–	–	–	–	40 (≈ 110 µM)	Non-toxic
O=C(O)[C@@]1(O)C[C@@H](O)[C@H](O)C(OCc2cc3ccc(Cl)cc3s2)=C1Cc1cc2ccc(Cl)cc2s1	5.96	5.17	Active	Active	–	–
COC(=O)[C@]1(O)C=C(OCc2cc3ccccc3s2)[C@@H](O)[C@H](O)C1	–	–	–	–	> 160	Non-toxic
CCCC(=O)O[C@@H]1C(OCc2ccc3ccccc3c2)=C[C@@](O)(C(=O)OCC)C[C@H]1OC(=O)CCC	–	–	–	–	5 (≈ 10 µM)	Non-toxic
O=C(O)[C@]1(O)C=C(OCc2cccs2)[C@@H](O)[C@H](O)C1	6.63	–	Active	Active	–	–
Cc1ccc2sc(CC3=C(OCc4cccs4)[C@@H](O)[C@H](O)C[C@]3(O)C(=O)O)cc2c1	6.06	6.55	Active	Active	–	–
CCCOC(=O)[C@]1(O)C=C(OCc2cc3ccc(Cl)cc3s2)[C@@H](O)[C@H](O)C1	–	–	–	–	40 (≈ 96.9 µM)	Non-toxic
Cc1ccc2sc(COC3=C[C@@](O)(C(=O)O)C[C@@H](O)[C@@H]3O)cc2c1	–	–	Active	Active	–	–
O=C(O)[C@]1(O)C=C(c2cccs2)[C@@H](O)[C@H](O)C1	6.60	–	–	–	–	–
O=C(O)[C@@]1(O)C[C@@H](O)[C@H](O)C(OCc2cc3ccccc3s2)=C1Cc1cccs1	–	6.55	Active	Active	–	–
CCCC(=O)O[C@@H]1C(OCc2ccc3ccccc3c2)=C[C@@](O)(C(=O)OCC)C[C@H]1O	–	–	–	–	10 (≈ 23.3 µM)	Non-toxic
O=C(O)[C@]1(O)C=C(OCc2cc3ccccc3s2)[C@@H](O)[C@H](O)C1	7.55	–	Active	Active	–	–
COC(=O)[C@]1(O)C=C(OCc2ccc3sccc3c2)[C@@H](O)[C@H](O)C1	–	–	–	–	> 160	Non-toxic
CCCOC(=O)[C@]1(O)C=C(OCc2ccc3sccc3c2)[C@@H](OC(=O)CCC)[C@H](O)C1	–	–	–	–	5 (≈ 11.1 µM)	Non-toxic
COC(=O)[C@]1(O)C=C(OCc2cc3cc(C)ccc3s2)[C@@H](O)[C@H](O)C1	–	–	–	–	> 160	Non-toxic
CCCOC(=O)[C@]1(O)C=C(OCc2cc3ccccc3s2)[C@@H](O)[C@H](O)C1	–	–	–	–	5 (≈ 13.2 µM)	Non-toxic
O=C(O)[C@]1(O)C=C(OCc2cc3ccc(Cl)cc3s2)[C@@H](O)[C@H](O)C1	7.46	6.69	Active	Active	–	–
CCCOC(=O)[C@]1(O)C=C(OCc2ccc3ccccc3c2)[C@@H](O)[C@H](O)C1	–	–	–	–	10 (≈ 26.9 µM)	Non-toxic
O=C(O)[C@]1(O)C=C(OCc2ccc3ccccc3c2)[C@@H](O)[C@H](O)C1	7.46	6.51	Active	Active	–	–
CCOC(=O)[C@]1(O)C=C(OCc2cc3ccc(Cl)cc3s2)[C@@H](O)[C@H](O)C1	–	–	–	–	40 (≈ 100 µM)	Non-toxic
